Like-named read-outs stand apart in the source and are kept apart here. Non-standard residues stand in square brackets, D forms with d. Residues, ends and D or L forms follow the SMILES beside them. pGlu = O=C1CC[C@@H](C(=O)O)N1
Key:
[1] = target: T1, TRH receptor-1 (TRHR-1) (Mus musculus, UniProt P21761); experiment: [3H]TRH competition binding, HEK293 cells expressing TRHR-1
T1 sequence (P21761 1-393): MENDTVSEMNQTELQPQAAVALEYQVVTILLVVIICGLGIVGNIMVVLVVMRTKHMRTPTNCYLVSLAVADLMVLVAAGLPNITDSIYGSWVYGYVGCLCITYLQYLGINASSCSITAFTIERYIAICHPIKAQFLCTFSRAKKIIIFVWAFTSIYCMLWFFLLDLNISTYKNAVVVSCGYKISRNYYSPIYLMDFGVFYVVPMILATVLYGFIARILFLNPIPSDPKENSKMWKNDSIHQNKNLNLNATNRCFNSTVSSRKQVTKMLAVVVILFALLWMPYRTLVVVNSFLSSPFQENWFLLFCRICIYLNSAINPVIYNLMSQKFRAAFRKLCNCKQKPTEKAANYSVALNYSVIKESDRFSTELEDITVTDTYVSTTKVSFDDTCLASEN

[2] = target: T2, TRH receptor-2 (TRHR-2) (Rattus norvegicus, UniProt A6IZR3); experiment: [3H]TRH competition binding, HEK293 cells expressing TRHR-2
T2 sequence (A6IZR3 1-352): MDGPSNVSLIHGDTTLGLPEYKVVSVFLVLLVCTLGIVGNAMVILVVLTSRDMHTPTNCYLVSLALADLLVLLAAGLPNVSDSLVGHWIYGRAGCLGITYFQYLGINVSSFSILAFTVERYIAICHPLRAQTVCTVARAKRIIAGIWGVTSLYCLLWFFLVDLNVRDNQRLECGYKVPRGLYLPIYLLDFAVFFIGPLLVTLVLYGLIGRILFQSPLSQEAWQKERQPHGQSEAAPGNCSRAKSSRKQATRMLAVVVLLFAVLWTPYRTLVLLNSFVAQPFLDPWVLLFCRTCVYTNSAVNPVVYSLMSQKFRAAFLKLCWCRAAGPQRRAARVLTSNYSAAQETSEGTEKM

[3] = test system: 465B12 antibody (raised to TRH)
[4] = test system: EEP (R^2=Glu) antibody (580B6)
[5] = test system: CR-V3-B53 antibody (raised to TRH)
[6] = Brain tissue analysis of TRH and EEP after peptide injection; assay type: in vivo, rats; conditions: 0.5 mg/kg (sc)
[7] = test system: pentobarbital-anesthetized rats; assay type: in vivo, male Wistar rats; conditions: for "wet dog" shaking while still anesthetized: rat, in vivo
Experimental: Twenty minutes after loss of the righting reflex, 10 μL of either sterile saline or peptide of this invention (1 or 10 μg/10 μL sterile saline) was administered by intracisternal (IC) injection. The time from IC injection to recovery of the righting reflex, as measured three times within 10 seconds, was recorded.

[8] = Serum T3 and T4 levels in Porsolt test animals; assay type: in vivo, rats; conditions: for T3 level: 0.5 mg/kg (sc); for effect upon T3 or T4 levels: at the dosage used
Experimental: A Porsolt swim test with rats was used to examine the antidepressant effects of peptides where R^2=Glu or R^2=Phe, as set forth in Lloyd, R. L. et al., Pharamcology, Biochemistry and Behavior, 70:15-22 (2001), incorporated herein by reference. […] No effect of the blocking variable or interaction of the blocking variable with treatment was found.
Using the animal models of Example 11, T3 (triiodothyronine) and T4 (thyroxine) levels were tested. Serum T3 was determined by […], using fluorescence polarization of a fixed concentration of a fluorescent analog of T3 as provided in the Abbott IMX System. T4 was also determined by radioimmunoassay. With EEP, no changes in T3 were observed. […] With ELP (where R^2 is Leu) and EFP there was an increase in T3, but this was not correlated to swim scores, with ELP not producing a behavioral effect, and EFP producing a marginal behavioral effect.

[9] = test system: Porsolt forced swim animal model of depression; experiment: Porsolt swim test; assay type: in vivo, rats
Experimental: Total immobility time versus swim time was recorded. Both high-dose (0.5 mg/kg sc) and low-dose injections (0.05 mg/kg ip) were used.

[10] = target: T3, HEK293 cells expressing TRHR-2 (Rattus norvegicus, UniProt A6IZR3); experiment: Intracellular calcium response (fura2), TRHR-2 cells; assay type: cell-based
T3 sequence (A6IZR3 1-352): T2 sequence (A6IZR3 1-352)

[11] = target: T4, HEK293 cells expressing TRHR-1 (Mus musculus, UniProt P21761); experiment: Intracellular calcium response (fura2), TRHR-1 cells; assay type: cell-based
T4 construct: expressed in transfected cells
T4 sequence (P21761 1-393): T1 sequence (P21761 1-393)

[12] = test system: control HEK293 cells; experiment: Intracellular calcium response (fura2), non-transfected control cells; assay type: cell-based; conditions: Ca2+-free buffer
Experimental: The ability of peptides of the formula pGlu-[…] to stimulate an intracellular calcium response in transfected HEK293 of Example 5 was evaluated, to determine whether the peptides behave as agonists. […] The coverslip was then rinsed and placed in a Sykes-Moore chamber covered with 1 mL Ca^2+ and Mg^2+ free HBSS. Imaging was performed on a Nikon inverted microscope with a DAGE CCD72 camera and […] intensifier system. Cells were alternately excited at 340 and 380 nm and emission was measured at 490 nm; 340/380 ratios were obtained every 1.2 seconds and analyzed using Image-1 software from Universal Imaging Corporation. […] Peak responses from between 33 and 120 individual cells were averaged, and responses to TRH were measured with each set of cells as a standard. Most of the peptides caused a small increase in intracellular Ca^2+ when added to control HEK293 cells bathed in Ca^2+-containing medium, but with the exception of the R^2=Leu peptide, none of them evoked an appreciable Ca^2+ response in Ca^2+-free HBSS, which was used for all experiments.

[13] = 50 micrograms given at bedtime; reduced from 12; cited from earlier work
[14] = target: TRH receptor-1 (TRHR-1); experiment: competition with 2 nM [^3H]TRH on HEK293 cells expressing TRHR-1
[15] = target: TRH receptor-2 (TRHR-2); experiment: competition with 2 nM [^3H]TRH on HEK293 cells expressing TRHR-2
[16] = Binding capacity / concentration in brain areas
[17] = tracer 125I-TRH, assay standard = 1.00
[18] = high-dose (0.5 mg/kg sc), three injections
[19] = low-dose (0.05 mg/kg ip), three injections

Molecule: N=C(N)NCCC[C@H](NC(=O)[C@@H]1CCC(=O)N1)C(=O)N1CCC[C@H]1C(N)=O [Arg, reference compound] ([pGlu]-Arg-Pro-NH2)
- IC50 [1]: > 262 µM
- IC50 [2]: > 262 µM

Molecule: NC(=O)CC[C@H](NC(=O)[C@@H]1CCC(=O)N1)C(=O)N1CCC[C@H]1C(N)=O [R^2 = Gln, reference compound] ([pGlu]-Gln-Pro-NH2)
- relative potency for displacement of assay tracer [3]: 0.0225
- relative potency for displacement of assay tracer [4]: 1.00
- relative potency for displacement of assay tracer [5]: 0.0055
- IC50 [1]: 27.7 µM
- IC50 [2]: 21.4 µM

Molecule: NC(=O)[C@@H]1CCCN1C(=O)[C@H](CCC(=O)O)NC(=O)[C@@H]1CCC(=O)N1 [R^2 = Glu, pGlu-Glu-Pro-NH2] ([pGlu]-Glu-Pro-NH2)
- relative potency for displacement of assay tracer [3, 17]: 0.02
- changes in TRH or EEP in brain regions (tissue analysis) [6]: failed to find any changes
- reduction in pentobarbitol-induced sleep time (analeptic effect) ([7]; IC injection of 10 μg): had an analeptic effect
- "wet dog" shaking while still anesthetized [7]: never produced shaking
- T3 level ([8]; R^2=Glu experiment, no significant difference to saline): 0.66 ng/mL
- T3 level ([8]; R^2=Phe experiment, significant increase vs controls (P<0.028, one-tailed)): 0.85 ng/mL
- change in T3 ([8]; animals of the Porsolt test): no changes
- effect upon T3 or T4 levels [8]: No effect
- mean immobility time ([9]; 0.05 mg/kg (ip)): 121 s
- mean immobility time ([9]; 0.5 mg/kg (sc)): 58 s
- antidepressant effect compared to saline (total immobility time) [9, 18]: effective
- antidepressant effect compared to saline (total immobility time) [9, 19]: effective
- relative potency for displacement of assay tracer [4, 17]: 1.00
- relative potency for displacement of assay tracer [5, 17]: 0.0092
- IC50 [1]: > 282 µM
- IC50 [2]: > 282 µM

Molecule: CC(C)C[C@H](NC(=O)[C@@H]1CCC(=O)N1)C(=O)N1CCC[C@H]1C(N)=O [R^2 = Leu, pGlu-Leu-Pro-NH2] ([pGlu]-Leu-Pro-NH2)
- relative potency for displacement of assay tracer [3, 17]: 0.301
- ability to block the Ca2+ response to low concentrations of TRH (antagonism) [10]: no effect was found
- ability to block the Ca2+ response to low concentrations of TRH (antagonism) [11]: no effect was found
- reduction in pentobarbitol-induced sleep time (analeptic effect) ([7]; IC injection of 10 μg): had an analeptic effect
- change in T3 ([8]; animals of the Porsolt test): increase
- Ca2+ response [12]: small Ca^2+ transient
- antidepressant effect compared to saline (total immobility time) ([9]; dose not stated): statistically meaningful behavioral effects were not observed
- relative potency for displacement of assay tracer [4, 17]: 5.00
- relative potency for displacement of assay tracer [5, 17]: 0.088
- IC50 [1]: 5.47 µM
- IC50 [2]: 1.95 µM

Molecule: NC(=O)[C@@H]1CCCN1C(=O)[C@H](Cc1ccccc1)NC(=O)[C@@H]1CCC(=O)N1 [R^2 = Phe, pGlu-Phe-Pro-NH2] ([pGlu]-Phe-Pro-NH2)
- changes in TRH or EEP in brain regions (tissue analysis) [6]: failed to find any changes
- change in T3 ([8]; animals of the Porsolt test): increase
- mean immobility time ([9]; 0.5 mg/kg (sc)): 125 s
- antidepressant effect compared to saline (total immobility time) [9, 18]: effective
- IC50 [2]: 3.36 µM

Molecule: NC(=O)[C@@H]1CCCN1C(=O)[C@H](Cc1ccc(O)cc1)NC(=O)[C@@H]1CCC(=O)N1 [R^2 = Tyr, pGlu-Tyr-Pro-NH2] ([pGlu]-Tyr-Pro-NH2)
- relative potency for displacement of assay tracer [3, 17]: 9.85
- effect upon T3 or T4 levels [8]: No effect
- antidepressant effect compared to saline (total immobility time) [9, 19]: effective
- relative potency for displacement of assay tracer [4, 17]: 5.06
- relative potency for displacement of assay tracer [5, 17]: 3.83
- IC50 [1]: > 257 µM
- IC50 [2]: > 257 µM

Molecule: CC(C)[C@H](NC(=O)[C@@H]1CCC(=O)N1)C(=O)N1CCC[C@H]1C(N)=O [R^2 = Val, pGlu-Val-Pro-NH2] ([pGlu]-Val-Pro-NH2)
- relative potency for displacement of assay tracer [3, 17]: 0.161
- reduction in pentobarbitol-induced sleep time (analeptic effect) ([7]; IC injection of 10 μg): had an analeptic effect
- effect upon T3 or T4 levels [8]: No effect
- antidepressant effect compared to saline (total immobility time) ([9]; dose not stated): statistically meaningful behavioral effects were not observed
- relative potency for displacement of assay tracer [4, 17]: 9.24
- relative potency for displacement of assay tracer [5, 17]: 0.087
- IC50 [1]: > 308 µM
- IC50 [2]: > 308 µM

Molecule: NC(=O)[C@@H]1CCCN1C(=O)[C@H](CO)NC(=O)[C@@H]1CCC(=O)N1 [Ser, reference compound] ([pGlu]-Ser-Pro-NH2)
- IC50 [1]: 69.5 µM
- IC50 [2]: 39.4 µM

Molecule: N[C@@H](Cc1cc(I)c(Oc2ccc(O)c(I)c2)c(I)c1)C(=O)O [T3, liothyronine]
- required numbers of ECTs [13]: 7

Molecule: NC(=O)[C@@H]1CCCN1C(=O)[C@H](Cc1cnc[nH]1)NC(=O)[C@@H]1CCC(=O)N1 [TRH, pGlu-His-Pro-NH2, reference compound]
- relative potency for displacement of assay tracer [3, 17]: 1.00
- reduction in pentobarbitol-induced sleep time (analeptic effect) ([7]; IC injection of 1 μg): did not result in a significant reduction
- reduction in pentobarbitol-induced sleep time (analeptic effect) ([7]; IC injection of 10 μg): had an analeptic effect
- "wet dog" shaking while still anesthetized [7]: frequently accompanied by “wet dog” shaking
- Ca2+ response [12]: no response
- relative potency for displacement of assay tracer [4, 17]: 2.91
- relative potency for displacement of assay tracer [5, 17]: 1.00
- IC50 [1]: 0.0235 µM
- IC50 [2]: 0.0243 µM

Molecule: C[C@@H](O)[C@H](NC(=O)[C@@H]1CCC(=O)N1)C(=O)N1CCC[C@H]1C(N)=O [Thr, reference compound] ([pGlu]-Thr-Pro-NH2)
- IC50 [1]: > 306 µM
- IC50 [2]: > 306 µM

Molecule: [pGlu]-Arg-Pro-NH2
- IC50 [14]: > 100 µg/mL
- IC50 [15]: > 100 µg/mL

Molecule: [pGlu]-Gln-Pro-NH2
- IC50 [14]: 9.8 µg/mL
- IC50 [15]: 7.57 µg/mL

Molecule: [pGlu]-Glu-Pro-NH2
- IC50 [14]: > 100 µg/mL
- IC50 [15]: > 100 µg/mL

Molecule: [pGlu]-Leu-Pro-NH2
- IC50 [14]: 1.85 µg/mL
- IC50 [15]: 0.66 µg/mL

Molecule: [pGlu]-Lys-Pro-NH2 [EKP]
- increase in T3 ([8]; animals of the Porsolt test): 48%
- increase in T4 ([8]; animals of the Porsolt test): 57%
- binding capacity in limbic and motor areas of the brain compared to the other TRH analogs [16]: significant binding capacity
- antidepressant effect compared to saline (total immobility time) [9, 19]: effective

Molecule: [pGlu]-Phe-Pro-NH2
- IC50 [14]: 1.58 µg/mL
- IC50 [15]: 1.25 µg/mL

Molecule: [pGlu]-Ser-Pro-NH2
- IC50 [14]: 21.7 µg/mL
- IC50 [15]: 12.3 µg/mL

Molecule: [pGlu]-Thr-Pro-NH2
- IC50 [14]: > 100 µg/mL
- IC50 [15]: > 100 µg/mL

Molecule: [pGlu]-Tyr-Pro-NH2
- IC50 [14]: > 100 µg/mL
- IC50 [15]: > 100 µg/mL

Molecule: [pGlu]-Val-Pro-NH2
- IC50 [14]: > 100 µg/mL
- IC50 [15]: > 100 µg/mL

Molecule: pGlu-His-Pro-NH2, thyrotropin releasing hormone (TRH) (peptide)
- IC50 [14]: 0.0085 µg/mL
- IC50 [15]: 0.0088 µg/mL
